The structures appear in SMILES notation. Residues, ends and D or L forms follow the SMILES beside them.

The Ki is the dissociation constant of the complex between target and ligand, obtained from inhibition or displacement. Low values mean higher affinity, high ones lower affinity.

Chain of Furin (P09958 whole entry): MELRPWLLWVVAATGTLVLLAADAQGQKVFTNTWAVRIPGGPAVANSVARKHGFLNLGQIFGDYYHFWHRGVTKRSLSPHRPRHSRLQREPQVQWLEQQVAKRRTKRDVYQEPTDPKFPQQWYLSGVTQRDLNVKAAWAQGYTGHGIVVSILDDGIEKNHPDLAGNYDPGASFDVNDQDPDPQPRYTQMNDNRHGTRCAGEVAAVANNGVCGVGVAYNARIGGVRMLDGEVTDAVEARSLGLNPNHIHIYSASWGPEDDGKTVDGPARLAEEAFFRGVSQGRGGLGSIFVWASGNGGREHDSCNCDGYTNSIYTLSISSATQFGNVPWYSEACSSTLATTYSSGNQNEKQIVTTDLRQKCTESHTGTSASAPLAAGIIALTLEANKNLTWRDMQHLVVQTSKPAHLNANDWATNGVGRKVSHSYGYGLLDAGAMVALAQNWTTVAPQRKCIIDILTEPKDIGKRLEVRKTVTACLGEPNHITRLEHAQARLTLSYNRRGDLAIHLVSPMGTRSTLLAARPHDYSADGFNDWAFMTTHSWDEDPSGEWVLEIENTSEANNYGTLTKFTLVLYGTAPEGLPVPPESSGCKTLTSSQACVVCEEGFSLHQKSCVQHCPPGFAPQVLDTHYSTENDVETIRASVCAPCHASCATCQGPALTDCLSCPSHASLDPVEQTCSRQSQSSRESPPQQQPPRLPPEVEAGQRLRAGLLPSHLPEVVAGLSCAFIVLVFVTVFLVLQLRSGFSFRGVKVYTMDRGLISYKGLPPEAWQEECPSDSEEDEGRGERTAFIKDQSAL

The assay has as its target Furin (Homo sapiens, UniProt P09958). As to the kind of experiment: Inhibition of furin.
In the case of `CC(=O)N[C@@H](CC(C)C)C(=O)N[C@@H](CC(C)C)C(=O)N[C@@H](CCCN=C(N)N)C(=O)N[C@H](C(=O)N[C@@H](CCCCN)C(=O)N[C@@H](CCCN=C(N)N)C(=O)O)C(C)C`, the inhibition constant Ki is 3500 nM.
Then `CC(C)[C@H](NC(=O)[C@H](CCCN=C(N)N)NCC(=O)Oc1ccccc1)C(=O)N[C@@H](CCCN=C(N)N)C(=O)NCCCN`, with 3020 nM.
Regarding `CC(C)[C@H](NC(=O)[C@H](CCCNC(=N)N)NCC(=O)Oc1ccccc1)C(=O)N[C@@H](CCCNC(=N)N)C(=O)NCCCNC(=N)N`, the Ki was determined as 63 nM.
`CC(C)[C@H](NC(=O)[C@H](CCCNC(=N)N)NCC(=O)Oc1ccccc1)C(=O)N[C@@H](CCCNC(=N)N)C(=O)NCCCCN` had a Ki of 7490 nM. This Ki is about 120-fold higher than that of the compound before.
The same measure for `CC(C)[C@H](NC(=O)[C@H](CCCNC(=N)N)NCC(=O)Oc1ccccc1)C(=O)N[C@@H](CCCNC(=N)N)C(=O)NCCCCNC(=N)N`: 78 nM; for `CC(C)[C@H](NC(=O)[C@H](CCCNC(=N)N)NCC(=O)Oc1ccccc1)C(=O)N[C@@H](CCCNC(=N)N)C(=O)NCCCCCN`: 553 nM.
Then `CC(C)[C@H](NC(=O)[C@H](CCCN=C(N)N)NCC(=O)Oc1ccccc1)C(=O)N[C@@H](CCCN=C(N)N)C(=O)NCCCCCN=C(N)N`, with 1070 nM; and `CCc1ccc(NC(=O)[C@H](CCCNC(=N)N)NC(=O)[C@@H](NC(=O)[C@H](CCCNC(=N)N)NCC(=O)Oc2ccccc2)C(C)C)cc1`, with 627 nM.
Then `CC(C)[C@H](NC(=O)[C@H](CCCNC(=N)N)NCC(=O)Oc1ccccc1)C(=O)N[C@@H](CCCNC(=N)N)C(=O)Nc1ccc(CNC(=N)N)cc1`, with 1430 nM; and `CC(C)[C@H](NC(=O)[C@H](CCCN=C(N)N)NCC(=O)Oc1ccccc1)C(=O)N[C@@H](CCCN=C(N)N)C(=O)Nc1cccc(CN)c1`, with 1320 nM; and `CC(C)[C@H](NC(=O)[C@H](CCCN=C(N)N)NCC(=O)Oc1ccccc1)C(=O)N[C@@H](CCCN=C(N)N)C(=O)Nc1cccc(CN=C(N)N)c1`, with 2730 nM.
Turning to `CC(C)[C@H](NC(=O)[C@H](CCCNC(=N)N)NCC(=O)Oc1ccccc1)C(=O)N[C@@H](CCCNC(=N)N)C(=O)NC1CCNCC1`, affinity was put at a Ki of 9710 nM.
The same measure for `CC(C)[C@H](NC(=O)[C@H](CCCN=C(N)N)NCC(=O)Oc1ccccc1)C(=O)N[C@@H](CCCN=C(N)N)C(=O)NC1CCN(C(=N)N)CC1`: 53 nM.
Consider `CCCCCCCCCC(=O)N[C@@H](CCCN=C(N)N)C(=O)N[C@H](C(=O)N[C@@H](CCCN=C(N)N)C(=O)Nc1ccc(C(=N)N)cc1)C(C)C`, for which the Ki came out at 1.6 nM.
Then `CC(=O)N[C@@H](CCCNC(=N)N)C(=O)N[C@H](C(=O)N[C@@H](CCCNC(=N)N)C(=O)Nc1ccc(C(=N)N)cc1)C(C)C`, with 1 nM; and `CCCCCCCCCC(=O)N[C@@H](CCCN=C(N)N)C(=O)N[C@H](C(=O)N[C@@H](CCCCN)C(=O)Nc1ccc(C(=N)N)cc1)C(C)C`, with 3.3 nM; and `CC(=O)N[C@@H](CC(C)C)C(=O)N[C@@H](CC(C)C)C(=O)N[C@@H](CCCN=C(N)N)C(=O)N[C@H](C(=O)N[C@@H](CCCCN)C(=O)N[C@@H](CCCN=C(N)N)C(N)=O)C(C)C`, with 1400 nM.
Then `CC(C)C[C@H](NC(=O)[C@@H](N)CC(C)C)C(=O)N[C@@H](CCCNC(=N)N)C(=O)N[C@H](C(=O)N[C@@H](CCCCN)C(=O)N[C@@H](CCCNC(=N)N)C(N)=O)C(C)C`, with 800 nM; and `CC(C)C[C@H](NC(=O)[C@@H](N)CC(C)C)C(=O)N[C@@H](CCCNC(=N)N)C(=O)N[C@H](C(=O)N[C@@H](CCCCN)C(=O)N[C@@H](CCCNC(=N)N)C(=O)O)C(C)C`, with 420 nM.
Then `NC(N)=NCCC[C@H](NC(=O)[C@H](CCCN=C(N)N)NC(=O)[C@H](CCCN=C(N)N)NC(=O)[C@H](CCCN=C(N)N)NC(=O)[C@H](CCCN=C(N)N)NC(=O)[C@@H](N)CCCN=C(N)N)C(=O)O`, with 114 nM.
`CC(=O)N[C@@H](CC(C)C)C(=O)N[C@@H](CCCCN)C(=O)N[C@@H](CCCN=C(N)N)C(=O)N[C@H](C(=O)N[C@@H](CCCCN)C(=O)N[C@@H](CCCN=C(N)N)C(N)=O)C(C)C` (Ac-LKRVKR-NH2) came in with a Ki of 190 nM.
The same measure for `CSCC[C@H](NC(=O)[C@H](CC(C)C)NC(C)=O)C(=O)N[C@@H](CCCNC(=N)N)C(=O)N[C@H](C(=O)N[C@@H](CCCCN)C(=O)N[C@@H](CCCNC(=N)N)C(N)=O)C(C)C` (Ac-LMRVKR-NH2): 1900 nM; for `CC(=O)N[C@@H](CC(C)C)C(=O)N[C@@H](Cc1ccc(O)cc1)C(=O)N[C@@H](CCCN=C(N)N)C(=O)N[C@H](C(=O)N[C@@H](CCCCN)C(=O)N[C@@H](CCCN=C(N)N)C(N)=O)C(C)C` (Ac-LYRVKR-NH2): 3400 nM.
Then `N=C(N)NCCC[C@H](NC(=O)[C@H](CCCNC(=N)N)NC(=O)[C@H](CCCNC(=N)N)NC(=O)[C@@H](N)CCCNC(=N)N)C(=O)O` (H-RRRR-OH), with 6400 nM; and `N=C(N)NCCC[C@H](NC(=O)[C@H](CCCNC(=N)N)NC(=O)[C@H](CCCNC(=N)N)NC(=O)[C@H](CCCNC(=N)N)NC(=O)[C@@H](N)CCCNC(=N)N)C(=O)O` (H-RRRRR-OH), with 990 nM.

The values are drawn from ChEMBL document CHEMBL2046329, “Furin inhibitors: importance of the positive formal charge and beyond” (Bioorg Med Chem, 2012).
